Results published in PMC11882969 (Nature Communications, 2025).
Where “and” joins values, the source holds several entries; their conditions need not be identical. Equal entries are not always repeated.

Experiments:
Format in all cases: cell-based
[1] = target: panel of 320 non-olfactory GPCRs (Homo sapiens, UniProt O00222)
[2] = target: panel of 320 non-olfactory GPCRs (Homo sapiens, UniProt O00270)
[3] = target: panel of 320 non-olfactory GPCRs (Homo sapiens, UniProt O15354)
[4] = target: panel of 320 non-olfactory GPCRs (Homo sapiens, UniProt O75388)
[5] = target: panel of 320 non-olfactory GPCRs (Homo sapiens, UniProt P0DMS8)
[6] = target: panel of 320 non-olfactory GPCRs (Homo sapiens, UniProt P13945)
panel of 320 non-olfactory GPCRs (Homo sapiens, UniProt P13945), sequence (P13945 whole entry): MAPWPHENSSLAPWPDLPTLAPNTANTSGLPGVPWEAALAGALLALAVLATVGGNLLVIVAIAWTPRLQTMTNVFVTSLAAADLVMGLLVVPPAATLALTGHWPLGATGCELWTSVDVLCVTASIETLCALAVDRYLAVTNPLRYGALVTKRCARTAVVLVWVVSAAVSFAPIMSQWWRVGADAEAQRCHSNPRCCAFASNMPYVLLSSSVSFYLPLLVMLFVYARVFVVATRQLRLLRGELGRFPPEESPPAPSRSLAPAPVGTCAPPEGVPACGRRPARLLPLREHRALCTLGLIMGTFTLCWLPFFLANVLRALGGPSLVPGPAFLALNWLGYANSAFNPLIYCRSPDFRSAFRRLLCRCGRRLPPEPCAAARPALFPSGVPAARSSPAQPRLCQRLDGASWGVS

[7] = target: panel of 320 non-olfactory GPCRs (Homo sapiens, UniProt P21452)
[8] = target: panel of 320 non-olfactory GPCRs (Homo sapiens, UniProt P21554)
[9] = target: panel of 320 non-olfactory GPCRs (Homo sapiens, UniProt P21728)
[10] = target: panel of 320 non-olfactory GPCRs (Homo sapiens, UniProt P21918)
[11] = target: panel of 320 non-olfactory GPCRs (Homo sapiens, UniProt P25025)
[12] = target: panel of 320 non-olfactory GPCRs (Homo sapiens, UniProt P25101)
[13] = target: panel of 320 non-olfactory GPCRs (Homo sapiens, UniProt P25106)
panel of 320 non-olfactory GPCRs (Homo sapiens, UniProt P25106), sequence (P25106 whole entry): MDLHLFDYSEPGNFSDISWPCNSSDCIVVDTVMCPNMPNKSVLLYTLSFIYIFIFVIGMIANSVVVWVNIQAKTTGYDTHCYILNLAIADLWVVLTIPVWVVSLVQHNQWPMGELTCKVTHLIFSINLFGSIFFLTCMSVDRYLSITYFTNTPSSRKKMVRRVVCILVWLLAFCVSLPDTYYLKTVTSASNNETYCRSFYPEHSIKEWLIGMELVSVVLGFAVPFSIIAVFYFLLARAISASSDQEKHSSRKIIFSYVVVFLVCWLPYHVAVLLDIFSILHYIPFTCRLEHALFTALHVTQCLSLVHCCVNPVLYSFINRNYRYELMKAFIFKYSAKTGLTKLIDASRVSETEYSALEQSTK

[14] = target: panel of 320 non-olfactory GPCRs (Homo sapiens, UniProt P28566)
[15] = target: panel of 320 non-olfactory GPCRs (Homo sapiens, UniProt P30518)
[16] = target: panel of 320 non-olfactory GPCRs (Homo sapiens, UniProt P30556)
panel of 320 non-olfactory GPCRs (Homo sapiens, UniProt P30556), sequence (P30556 whole entry): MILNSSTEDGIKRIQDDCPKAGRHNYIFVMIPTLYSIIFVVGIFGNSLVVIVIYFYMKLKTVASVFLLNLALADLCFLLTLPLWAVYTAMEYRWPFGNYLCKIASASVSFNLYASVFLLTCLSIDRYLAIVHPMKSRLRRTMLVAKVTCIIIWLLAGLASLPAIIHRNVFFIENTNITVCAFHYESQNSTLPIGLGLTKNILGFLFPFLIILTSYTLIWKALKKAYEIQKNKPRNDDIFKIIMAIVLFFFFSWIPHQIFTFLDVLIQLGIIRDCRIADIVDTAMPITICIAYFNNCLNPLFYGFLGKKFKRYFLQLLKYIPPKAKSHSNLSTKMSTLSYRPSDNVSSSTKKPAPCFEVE

[17] = target: panel of 320 non-olfactory GPCRs (Homo sapiens, UniProt P30872)
[18] = target: panel of 320 non-olfactory GPCRs (Homo sapiens, UniProt P30874)
[19] = target: panel of 320 non-olfactory GPCRs (Homo sapiens, UniProt P31391)
[20] = target: panel of 320 non-olfactory GPCRs (Homo sapiens, UniProt P32245)
[21] = target: panel of 320 non-olfactory GPCRs (Homo sapiens, UniProt P41594)
[22] = target: panel of 320 non-olfactory GPCRs (Homo sapiens, UniProt P41597)
[23] = target: panel of 320 non-olfactory GPCRs (Homo sapiens, UniProt P46091)
panel of 320 non-olfactory GPCRs (Homo sapiens, UniProt P46091), sequence (P46091 whole entry): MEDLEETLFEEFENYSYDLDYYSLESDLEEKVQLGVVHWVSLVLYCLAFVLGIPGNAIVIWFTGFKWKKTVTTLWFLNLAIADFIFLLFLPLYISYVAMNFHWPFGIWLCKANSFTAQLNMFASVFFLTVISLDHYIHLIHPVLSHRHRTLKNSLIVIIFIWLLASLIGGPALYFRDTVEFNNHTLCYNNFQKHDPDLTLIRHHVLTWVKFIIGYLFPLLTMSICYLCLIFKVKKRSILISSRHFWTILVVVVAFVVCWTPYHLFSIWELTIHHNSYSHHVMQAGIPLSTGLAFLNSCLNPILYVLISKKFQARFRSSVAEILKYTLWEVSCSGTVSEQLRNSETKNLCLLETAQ

[24] = target: panel of 320 non-olfactory GPCRs (Homo sapiens, UniProt P46092)
[25] = target: panel of 320 non-olfactory GPCRs (Homo sapiens, UniProt P47871)
[26] = target: panel of 320 non-olfactory GPCRs (Homo sapiens, UniProt P51679)
panel of 320 non-olfactory GPCRs (Homo sapiens, UniProt P51679), sequence (P51679 whole entry): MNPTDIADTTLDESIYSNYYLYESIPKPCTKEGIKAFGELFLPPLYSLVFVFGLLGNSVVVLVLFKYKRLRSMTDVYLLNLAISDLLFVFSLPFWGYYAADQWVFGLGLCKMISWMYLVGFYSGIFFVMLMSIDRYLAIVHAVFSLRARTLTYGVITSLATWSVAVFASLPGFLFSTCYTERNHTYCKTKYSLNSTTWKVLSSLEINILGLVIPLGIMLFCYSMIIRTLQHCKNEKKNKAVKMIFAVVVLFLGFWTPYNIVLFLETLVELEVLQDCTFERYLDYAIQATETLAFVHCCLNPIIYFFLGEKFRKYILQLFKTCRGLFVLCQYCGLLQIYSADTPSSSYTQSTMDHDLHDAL

[27] = target: panel of 320 non-olfactory GPCRs (Homo sapiens, UniProt P51685)
[28] = target: panel of 320 non-olfactory GPCRs (Homo sapiens, UniProt P55085)
panel of 320 non-olfactory GPCRs (Homo sapiens, UniProt P55085), sequence (P55085 26-397): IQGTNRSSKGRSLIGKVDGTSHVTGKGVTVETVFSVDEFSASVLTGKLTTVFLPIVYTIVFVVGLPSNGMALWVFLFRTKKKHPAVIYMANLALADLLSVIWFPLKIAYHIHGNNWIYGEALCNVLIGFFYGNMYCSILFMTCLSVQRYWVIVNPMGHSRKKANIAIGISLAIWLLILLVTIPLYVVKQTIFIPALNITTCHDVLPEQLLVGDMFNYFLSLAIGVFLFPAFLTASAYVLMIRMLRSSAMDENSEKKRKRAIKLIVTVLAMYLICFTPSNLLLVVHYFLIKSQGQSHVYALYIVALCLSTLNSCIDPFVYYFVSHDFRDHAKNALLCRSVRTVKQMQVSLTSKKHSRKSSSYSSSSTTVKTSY

[29] = target: panel of 320 non-olfactory GPCRs (Homo sapiens, UniProt Q13304)
[30] = target: panel of 320 non-olfactory GPCRs (Homo sapiens, UniProt Q5UAW9)
panel of 320 non-olfactory GPCRs (Homo sapiens, UniProt Q5UAW9), sequence (Q5UAW9 whole entry): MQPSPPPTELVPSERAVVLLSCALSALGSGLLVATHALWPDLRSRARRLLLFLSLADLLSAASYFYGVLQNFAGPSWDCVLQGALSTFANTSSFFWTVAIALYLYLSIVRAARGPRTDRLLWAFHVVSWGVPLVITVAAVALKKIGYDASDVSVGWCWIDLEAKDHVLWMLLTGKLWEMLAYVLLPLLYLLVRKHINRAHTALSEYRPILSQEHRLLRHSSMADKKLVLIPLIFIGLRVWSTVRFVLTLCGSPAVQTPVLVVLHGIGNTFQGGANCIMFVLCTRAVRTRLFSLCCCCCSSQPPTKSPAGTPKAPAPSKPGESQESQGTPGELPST

[31] = target: panel of 320 non-olfactory GPCRs (Homo sapiens, UniProt Q86Y34)
panel of 320 non-olfactory GPCRs (Homo sapiens, UniProt Q86Y34), sequence (Q86Y34 21-549): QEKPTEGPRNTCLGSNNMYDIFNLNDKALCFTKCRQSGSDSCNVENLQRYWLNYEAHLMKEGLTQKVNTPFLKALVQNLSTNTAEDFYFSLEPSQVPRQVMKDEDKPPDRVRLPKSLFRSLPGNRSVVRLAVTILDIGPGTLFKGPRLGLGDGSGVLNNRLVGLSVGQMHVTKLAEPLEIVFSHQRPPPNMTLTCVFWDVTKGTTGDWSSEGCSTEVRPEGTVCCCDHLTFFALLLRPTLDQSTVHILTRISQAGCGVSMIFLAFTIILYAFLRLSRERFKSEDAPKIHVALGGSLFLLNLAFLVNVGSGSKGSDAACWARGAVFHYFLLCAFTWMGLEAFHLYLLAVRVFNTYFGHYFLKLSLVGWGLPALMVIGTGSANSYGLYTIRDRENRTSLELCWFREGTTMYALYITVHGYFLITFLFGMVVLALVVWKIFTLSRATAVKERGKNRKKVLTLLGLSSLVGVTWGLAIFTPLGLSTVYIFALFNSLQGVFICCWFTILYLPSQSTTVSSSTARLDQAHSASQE

[32] = target: panel of 320 non-olfactory GPCRs (Homo sapiens, UniProt Q8TDS4)
[33] = target: panel of 320 non-olfactory GPCRs (Homo sapiens, UniProt Q96LB1)
panel of 320 non-olfactory GPCRs (Homo sapiens, UniProt Q96LB1), sequence (Q96LB1 whole entry): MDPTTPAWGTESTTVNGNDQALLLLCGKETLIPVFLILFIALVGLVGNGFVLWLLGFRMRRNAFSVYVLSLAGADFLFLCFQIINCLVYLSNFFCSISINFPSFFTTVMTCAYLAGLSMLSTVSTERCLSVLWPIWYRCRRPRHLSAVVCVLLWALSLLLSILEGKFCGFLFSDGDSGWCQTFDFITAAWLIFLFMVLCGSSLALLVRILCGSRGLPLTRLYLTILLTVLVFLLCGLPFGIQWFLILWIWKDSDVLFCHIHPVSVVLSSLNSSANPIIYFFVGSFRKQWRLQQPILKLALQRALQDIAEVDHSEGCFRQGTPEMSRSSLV

[34] = target: panel of 320 non-olfactory GPCRs (Homo sapiens, UniProt Q9BZJ8)
[35] = target: panel of 320 non-olfactory GPCRs (Homo sapiens, UniProt Q9HBW0)
[36] = target: panel of 320 non-olfactory GPCRs (Homo sapiens, UniProt Q9NPC1)
[37] = target: panel of 320 non-olfactory GPCRs (Homo sapiens, UniProt Q9P296)
panel of 320 non-olfactory GPCRs (Homo sapiens, UniProt Q9P296), sequence (Q9P296 whole entry): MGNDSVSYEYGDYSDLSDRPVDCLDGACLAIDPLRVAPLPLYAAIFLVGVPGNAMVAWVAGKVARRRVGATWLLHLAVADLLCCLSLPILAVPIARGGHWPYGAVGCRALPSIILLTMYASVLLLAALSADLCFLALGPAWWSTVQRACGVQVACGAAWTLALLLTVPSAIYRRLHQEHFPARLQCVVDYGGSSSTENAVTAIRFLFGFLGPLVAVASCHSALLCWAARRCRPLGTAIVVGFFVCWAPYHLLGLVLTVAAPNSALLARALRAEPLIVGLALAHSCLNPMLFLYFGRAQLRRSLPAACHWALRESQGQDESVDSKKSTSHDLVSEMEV

panel of 320 non-olfactory GPCRs (Homo sapiens, UniProt O00222), sequence (O00222 34-908): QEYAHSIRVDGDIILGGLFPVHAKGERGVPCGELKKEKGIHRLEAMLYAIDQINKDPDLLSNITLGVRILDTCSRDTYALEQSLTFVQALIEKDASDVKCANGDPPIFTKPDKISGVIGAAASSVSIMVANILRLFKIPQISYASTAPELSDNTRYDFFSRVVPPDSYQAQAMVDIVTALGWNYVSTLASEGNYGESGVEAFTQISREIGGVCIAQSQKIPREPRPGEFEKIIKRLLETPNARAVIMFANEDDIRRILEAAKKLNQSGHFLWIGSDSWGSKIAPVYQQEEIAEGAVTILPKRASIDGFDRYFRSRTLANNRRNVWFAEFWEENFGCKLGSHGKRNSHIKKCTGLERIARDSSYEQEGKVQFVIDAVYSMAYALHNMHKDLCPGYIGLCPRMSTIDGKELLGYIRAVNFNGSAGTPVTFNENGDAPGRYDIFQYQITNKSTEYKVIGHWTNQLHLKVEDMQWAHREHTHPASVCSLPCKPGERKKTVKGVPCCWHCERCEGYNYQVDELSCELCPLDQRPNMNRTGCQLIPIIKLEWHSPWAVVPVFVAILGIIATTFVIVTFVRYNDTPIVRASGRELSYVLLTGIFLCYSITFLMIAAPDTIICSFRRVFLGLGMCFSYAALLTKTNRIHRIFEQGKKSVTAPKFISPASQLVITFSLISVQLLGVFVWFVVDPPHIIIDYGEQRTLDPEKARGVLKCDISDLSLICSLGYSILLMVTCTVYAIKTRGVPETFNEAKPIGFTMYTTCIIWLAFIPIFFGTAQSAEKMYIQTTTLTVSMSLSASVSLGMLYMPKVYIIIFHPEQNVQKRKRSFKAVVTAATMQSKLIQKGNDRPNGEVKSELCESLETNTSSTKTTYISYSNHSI
panel of 320 non-olfactory GPCRs (Homo sapiens, UniProt O00270), sequence (O00270 whole entry): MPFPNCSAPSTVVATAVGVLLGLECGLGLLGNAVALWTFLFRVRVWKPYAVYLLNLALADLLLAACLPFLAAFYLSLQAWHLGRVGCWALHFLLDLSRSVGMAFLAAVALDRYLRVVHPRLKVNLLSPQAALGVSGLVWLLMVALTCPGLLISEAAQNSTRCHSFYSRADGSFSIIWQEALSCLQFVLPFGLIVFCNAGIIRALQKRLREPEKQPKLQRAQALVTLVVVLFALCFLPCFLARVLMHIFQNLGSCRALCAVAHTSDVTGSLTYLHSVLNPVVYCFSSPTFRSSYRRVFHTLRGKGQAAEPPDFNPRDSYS

Row | Structure (SMILES) | Fold of Basal RLU [1] | Fold of Basal RLU [2] | Fold of Basal RLU [3] | Fold of Basal RLU [4] | Fold of Basal RLU [5] | Fold of Basal RLU [6] | Fold of Basal RLU [7] | Fold of Basal RLU [8] | Fold of Basal RLU [9] | Fold of Basal RLU [10] | Fold of Basal RLU [11] | Fold of Basal RLU [12] | Fold of Basal RLU [13] | Fold of Basal RLU [14] | Fold of Basal RLU [15] | Fold of Basal RLU [16] | Fold of Basal RLU [17] | Fold of Basal RLU [18] | Fold of Basal RLU [19] | Fold of Basal RLU [20] | further results
1 | COC(=O)[C@@](C)(NC(=O)c1cc(C)n(-c2cccc(C(F)(F)F)c2)n1)c1cccs1 [‘1350] | 0.7 and 0.9 and 1.2 and 1.4 | 1.1 fold and 1.4 fold and 1.2 fold and 1.6 fold | 1 fold and 0.8 fold and 0.9 fold and 1.3 fold | 1.1 fold and 0.9 fold and 1 fold and 0.8 fold | 1 fold and 0.9 fold and 1.2 fold | 1 and 1.5 and 1.9 and 1.1 | 1 fold and 1.1 fold and 0.9 fold | 5.2 and 4.9 and 5.3 | 0.9 and 1.1 and 0.8 | 0.5 and 0.4 and 0.6 | 0.8 fold and 1 fold and 1.1 fold | 1.1 fold and 0.9 fold and 0.8 fold | 1.1 fold and 1 fold and 1.6 fold and 2 fold | 1.3 fold and 1.5 fold and 1.2 fold | 1.1 fold and 0.9 fold and 1.2 fold and 1.3 fold | 1.1 and 1.3 and 1.2 | 1.6 fold and 1.2 fold and 1.5 fold | 0.7 and 0.8 and 0.6 | 2.3 and 2 and 1.6 | 1 fold and 1.4 fold and 0.8 fold | Fold of Basal RLU [21]: 0.8 and 0.6 and 0.7; Fold of Basal RLU [22]: 0.9 and 1.4 and 1; Fold of Basal RLU [23]: 1 fold and 0.8 fold and 1.4 fold; Fold of Basal RLU [24]: 0.9 fold and 1 fold and 1.2 fold and 1.3 fold; Fold of Basal RLU [25]: 0.8 and 1 and 1.2 and 1.1; Fold of Basal RLU [26]: 1.1 and 1 and 0.9; Fold of Basal RLU [27]: 1.6 and 1.3 and 1.1 and 1; Fold of Basal RLU [28]: 0.8 and 1.2; Fold of Basal RLU [29]: 1 fold and 1.2 fold and 0.8 fold and 1.1 fold; Fold of Basal RLU [30]: 1.2 and 1.1 and 1 and 1.6; Fold of Basal RLU [31]: 2.1 and 1.2 and 1.1; Fold of Basal RLU [32]: 1 fold and 0.8 fold; Fold of Basal RLU [33]: 1.7 fold and 1.5 fold and 1 fold and 1.1 fold; Fold of Basal RLU [34]: 1 and 0.7 and 0.9 and 0.8; Fold of Basal RLU [35]: 0.7 and 0.8 and 1.1 and 0.6; Fold of Basal RLU [36]: 0.8 fold and 1 fold and 0.6 fold and 0.7 fold; Fold of Basal RLU [37]: 0.9 fold and 0.8 fold and 1.3 fold and 1.5 fold
2 | Cc1cc(C(=O)NC(C)(c2ccco2)c2ccco2)nn1-c1cccc(C(F)(F)F)c1 [‘4936] | 0.3 and 0.6 and 0.4 and 0.5 | 1.4 fold and 1.2 fold and 1.7 fold and 2.2 fold | 1 fold and 1.1 fold and 1.2 fold | 1.4 fold and 1.1 fold and 1.3 fold and 1.2 fold | 0.7 fold and 1.1 fold | 0.9 and 0.7 and 1 | 1.3 fold and 1.1 fold and 1.5 fold | 5.5 and 5.4 and 5.6 | 0.7 and 0.9 and 0.8 | 1.1 and 1.3 and 1.4 | 1.8 fold and 1.3 fold and 1.4 fold and 1.6 fold | 0.9 fold and 0.8 fold and 0.6 fold | 3.3 fold and 2.7 fold and 2.1 fold and 4 fold | 1.4 fold and 1.3 fold and 1.5 fold and 2 fold | 0.9 fold and 1.3 fold and 1.6 fold | 1.7 and 1.2 and 1.4 and 1.8 | 1.3 fold and 1.2 fold and 1.5 fold and 1.8 fold | 0.7 and 1 | 1.9 and 1.7 and 2.4 and 1.5 | 1.9 fold and 1.8 fold and 1.7 fold and 1.6 fold | Fold of Basal RLU [21]: 1.1 and 1.2 and 0.9 and 0.8; Fold of Basal RLU [22]: 0.9 and 0.8 and 1; Fold of Basal RLU [23]: 1 fold and 1.2 fold and 1.5 fold and 1.3 fold; Fold of Basal RLU [24]: 0.9 fold and 1.2 fold and 1 fold; Fold of Basal RLU [25]: 1.3 and 1.1 and 1.4 and 0.8; Fold of Basal RLU [26]: 0.6 and 0.5; Fold of Basal RLU [27]: 1.5 and 1.1 and 1.2 and 0.9; Fold of Basal RLU [28]: 0.9 and 1.3 and 1.1; Fold of Basal RLU [29]: 1.6 fold and 1.4 fold and 1.1 fold; Fold of Basal RLU [30]: 1.4 and 1.2 and 0.9 and 0.7; Fold of Basal RLU [31]: 2.2 and 2.3 and 1.6 and 3.1; Fold of Basal RLU [32]: 1.2 fold and 1.1 fold and 1 fold; Fold of Basal RLU [33]: 1.3 fold and 1.2 fold and 1.7 fold and 1.4 fold; Fold of Basal RLU [34]: 0.9 and 0.8 and 1 and 1.1; Fold of Basal RLU [35]: 0.7 and 0.8 and 1 and 1.2; Fold of Basal RLU [36]: 0.6 fold and 0.8 fold and 0.7 fold and 0.9 fold; Fold of Basal RLU [37]: 0.9 fold and 1 fold and 1.1 fold
